From patent US7582649B2, “Hydroxy alkyl substituted 1,3,8-triazaspiro[4.5]decan-4-one derivatives useful for the treatment of ORL-1 receptor mediated disorders” (Janssen Pharmaceutica, NV, priority 2002, dated 2009)

Experiments:
kappa opioid receptor = kappa opioid receptor (Homo sapiens, UniProt P41145); experiment: Filtration binding assay: kappa opioid receptor
mu opioid receptor = mu opioid receptor (Homo sapiens, UniProt P35372); experiment: Filtration binding assay: mu opioid receptor
Chain of mu opioid receptor (P35372 whole entry): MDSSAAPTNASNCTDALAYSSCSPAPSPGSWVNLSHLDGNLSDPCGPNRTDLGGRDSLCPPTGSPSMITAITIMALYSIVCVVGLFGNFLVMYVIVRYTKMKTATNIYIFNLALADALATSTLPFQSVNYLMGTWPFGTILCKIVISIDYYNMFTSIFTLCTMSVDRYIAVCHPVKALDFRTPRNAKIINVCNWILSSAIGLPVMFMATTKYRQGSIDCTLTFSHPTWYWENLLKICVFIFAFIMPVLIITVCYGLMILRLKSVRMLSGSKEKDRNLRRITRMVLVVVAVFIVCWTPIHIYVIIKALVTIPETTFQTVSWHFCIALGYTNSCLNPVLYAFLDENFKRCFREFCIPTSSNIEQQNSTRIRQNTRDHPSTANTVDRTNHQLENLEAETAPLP

Chain of kappa opioid receptor (P41145 whole entry): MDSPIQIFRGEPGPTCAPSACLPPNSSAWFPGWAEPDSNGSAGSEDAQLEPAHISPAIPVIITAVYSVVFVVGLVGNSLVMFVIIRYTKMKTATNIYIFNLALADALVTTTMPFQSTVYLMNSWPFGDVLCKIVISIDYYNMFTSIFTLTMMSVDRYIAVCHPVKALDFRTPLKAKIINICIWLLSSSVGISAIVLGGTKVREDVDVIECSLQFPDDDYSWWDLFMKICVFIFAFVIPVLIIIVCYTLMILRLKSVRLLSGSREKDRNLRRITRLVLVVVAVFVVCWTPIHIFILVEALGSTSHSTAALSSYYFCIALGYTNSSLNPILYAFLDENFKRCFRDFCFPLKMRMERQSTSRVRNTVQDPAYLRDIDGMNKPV

SMILES	IC50 (kappa opioid receptor)	IC50 (mu opioid receptor)	Ki (mu opioid receptor)
COc1ccc(CNC[C@H](O)CN2CN(c3ccc(F)cc3)C3(CCN(C4Cc5cccc6cccc4c56)CC3)C2=O)cc1OC (mixture of isomers) [compound 307]	210 nM	750 nM	–
O=C1N(C[C@@H](O)CN(CCc2ccccc2)Cc2ccccc2)CN(c2ccc(F)cc2)C12CCN(C1Cc3cccc4cccc1c34)CC2 (mixture of isomers) [compound 313]	500 nM	330 nM	–
O=C1N(C[C@@H](O)CNCc2cc(C(F)(F)F)cc(C(F)(F)F)c2)CN(c2ccc(F)cc2)C12CCN(C1Cc3cccc4cccc1c34)CC2 (mixture of isomers) [compound 319]	580 nM	320 nM	–
COc1cc(CNC[C@H](O)CN2CN(c3ccc(F)cc3)C3(CCN(C4Cc5cccc6cccc4c56)CC3)C2=O)cc(OC)c1OC (mixture of isomers) [compound 320]	120 nM	340 nM	–
COc1cc(CNC[C@H](O)CN2CN(c3ccc(F)cc3)C3(CCN(C4Cc5cccc6cccc4c56)CC3)C2=O)cc(OC)c1 (mixture of isomers) [compound 324]	230 nM	110 nM	–
CNC[C@@H](O)CN1CN(c2ccc(F)cc2)C2(CCN(Cc3cccc4cccc(C)c34)CC2)C1=O [Compound #660, 1-(4-Fluoro-phenyl)-3-(2-(R)-hydroxy-3-methylamino-propyl)-8-(8-methyl-naphthalen-1-ylmethyl)-1,3,8-triaza-spiro[4.5]decan-4-one]	–	–	870 nM
O=C1N(C[C@@H](O)CN2C=CCC2)CN(c2ccc(F)cc2)C12CCN(CC1CCCCCCC1)CC2 [compound 70]	–	630 nM	–
CN(C)c1ccc(CNC[C@@H](O)CN2CN(c3ccccc3)C3(CCN(CCc4ccccc4-c4cccs4)CC3)C2=O)cc1 [compound 139]	–	103 nM	–
O=C1N(C[C@H](O)CNCCc2cc3ccc(F)cc3[nH]2)CN(c2ccccc2)C12CCN(CCc1ccccc1-c1cccs1)CC2 [compound 142]	–	104 nM	–
COc1ccc(CCNC[C@@H](O)CN2CN(c3ccccc3)C3(CCN(CCc4ccccc4-c4cccs4)CC3)C2=O)cc1 [compound 145]	–	104 nM	–
O=C1N(C[C@@H](O)CN(CCc2ccccc2)Cc2ccccc2)CN(c2ccccc2)C12CCN(CCc1ccccc1-c1cccs1)CC2 [compound 230]	–	152 nM	–
O=C1N(C[C@@H](O)CNCCN2CCOCC2)CN(c2ccc(F)cc2)C12CCN(Cc1ccc3ccccc3c1)CC2 [compound 259]	–	500 nM	–
O=C1N(C[C@@H](O)CNCCc2ccc3c(c2)OCO3)CN(c2ccc(F)cc2)C12CCN(Cc1ccc3ccccc3c1)CC2 [compound 262]	–	850 nM	–
COc1ccc(CCN(C)C[C@H](O)CN2CN(c3ccc(F)cc3)C3(CCN(Cc4ccc5ccccc5c4)CC3)C2=O)cc1OC [compound 263]	–	590 nM	–
O=C1N(C[C@H](O)CNCCc2ccc3c(c2)OCO3)CN(c2ccc(F)cc2)C12CCN(Cc1ccc(Cl)cc1)CC2 [compound 268]	–	950 nM	–
COc1cc(CCNC[C@@H](O)CN2CN(c3ccc(F)cc3)C3(CCN(Cc4ccc(Cl)cc4)CC3)C2=O)c([N+](=O)[O-])cc1OC [compound 269]	–	2490 nM	–
COc1ccc(CCN(C)C[C@H](O)CN2CN(c3ccc(F)cc3)C3(CCN(Cc4ccc(Cl)cc4)CC3)C2=O)cc1OC [compound 270]	–	410 nM	–
O=C1N(C[C@@H](O)CN(Cc2ccccc2)C[C@@H]2CCCC[C@@H]2O)CN(c2ccc(F)cc2)C12CCN(CC1CCCCCCC1)CC2 [compound 290]	–	930 nM	–
CNCCNC[C@@H](O)CN1CN(c2ccc(F)cc2)C2(CCN(Cc3cccc4cccc(C)c34)CC2)C1=O [compound 661]	–	–	800 nM
Cc1cccc2cccc(CN3CCC4(CC3)C(=O)N(C[C@H](O)CN3CC[C@@H](N(C)C)C3)CN4c3ccc(F)cc3)c12 [compound 708]	–	–	490 nM
Cc1cccc2cccc(CN3CCC4(CC3)C(=O)N(C[C@H](O)CN3CCC(O)C3)CN4c3ccc(F)cc3)c12 (some centres unmarked) [compound 712]	–	–	1950 nM
